The compounds below were run against Potassium voltage-gated channel subfamily H member 2 (Homo sapiens, UniProt Q12809) (assay: Test for hERG Potassium Ion Channel).
Chain of Potassium voltage-gated channel subfamily H member 2 (Q12809 whole entry): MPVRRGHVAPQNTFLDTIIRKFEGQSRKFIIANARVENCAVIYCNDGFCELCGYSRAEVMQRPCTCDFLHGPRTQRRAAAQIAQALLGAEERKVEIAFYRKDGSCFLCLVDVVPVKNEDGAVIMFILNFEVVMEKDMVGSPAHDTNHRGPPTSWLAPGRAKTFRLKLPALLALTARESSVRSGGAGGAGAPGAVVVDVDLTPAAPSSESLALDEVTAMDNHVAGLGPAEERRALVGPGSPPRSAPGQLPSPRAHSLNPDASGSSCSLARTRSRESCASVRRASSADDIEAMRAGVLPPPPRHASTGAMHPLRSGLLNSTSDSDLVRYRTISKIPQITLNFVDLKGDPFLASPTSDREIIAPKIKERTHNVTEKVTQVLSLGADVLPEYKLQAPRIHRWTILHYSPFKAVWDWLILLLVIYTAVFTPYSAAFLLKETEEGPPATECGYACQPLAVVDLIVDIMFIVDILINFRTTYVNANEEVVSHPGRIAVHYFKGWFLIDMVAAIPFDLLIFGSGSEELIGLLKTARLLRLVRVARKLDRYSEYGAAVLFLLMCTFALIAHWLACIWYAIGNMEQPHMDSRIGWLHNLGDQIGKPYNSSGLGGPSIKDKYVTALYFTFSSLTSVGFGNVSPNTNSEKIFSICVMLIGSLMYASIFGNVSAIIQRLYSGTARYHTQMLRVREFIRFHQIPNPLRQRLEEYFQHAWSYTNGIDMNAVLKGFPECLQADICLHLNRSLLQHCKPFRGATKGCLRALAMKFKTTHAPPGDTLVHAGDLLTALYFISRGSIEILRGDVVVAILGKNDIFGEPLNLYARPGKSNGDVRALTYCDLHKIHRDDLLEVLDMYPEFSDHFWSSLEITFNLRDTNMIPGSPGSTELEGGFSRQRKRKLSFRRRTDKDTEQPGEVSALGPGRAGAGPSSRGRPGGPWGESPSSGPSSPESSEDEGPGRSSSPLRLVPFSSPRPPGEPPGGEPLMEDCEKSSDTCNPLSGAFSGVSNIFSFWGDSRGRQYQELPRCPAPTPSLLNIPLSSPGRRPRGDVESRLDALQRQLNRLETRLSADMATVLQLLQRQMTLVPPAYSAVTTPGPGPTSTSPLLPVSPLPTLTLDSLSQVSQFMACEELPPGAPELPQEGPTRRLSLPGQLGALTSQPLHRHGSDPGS
From the text: Experimental method: in CHO (Chinese Hamster Ovary) cells stably expressing hERG potassium channel, the whole cell patch-clamp technique was used to record hERG potassium channel current at room temperature. The glass microelectrode was made of a glass electrode blank (BF150-86-10, Sutter) by a puller. The tip resistance after filling the liquid in the electrode was about 2-5 MΩ. The glass microelectrode can be connected to the patch-clamp amplifier by inserting the glass microelectrode into an amplifier probe. The clamping voltage and data recording were controlled and recorded by the pClamp 10 software through a computer. The sampling frequency was 10 kHz, and the filtering frequency was 2 kHz. After the whole cell records were obtained, the cells were clamped at −80 mV, and the step voltage that induced the hERG potassium current (IhERG) was depolarized from −80 mV to +20 mV for 2 s, then repolarized to −50 mV, and returned to −80 mV after 1 s. This voltage stimulation was given every 10 s, and the administration process was started after the hERG potassium current was confirmed to be stable (at least 1 minute). The compound was administered for at least 1 minute at each test concentration, and at least 2 cells (n≥2) were tested at each concentration.
`CNC(=O)COc1cc2cc(Nc3nc(N4CC[C@H](N5CCN(c6ccc(N[C@@H]7CCC(=O)NC7=O)cc6F)CC5)C(F)(F)C4)ncc3Cl)ccc2n(C)c1=O` [US20250333410, Compound 73] was tested, and the IC50 was greater than 40 µM.
Compound `CNC(=O)COc1cc2cc(Nc3nc(N4CCC(CN5CCC(C6CCN(c7cccc8c(C9CCC(=O)NC9=O)nn(C)c78)CC6)CC5)CC4)ncc3Cl)ccc2n(C)c1=O` (stereo unspecified) [US20250333410, Compound 8] has an IC50 greater than 40 µM.
Compound `CNC(=O)COc1cc2cc(Nc3nc(N4CCN(CC5CC6(CCN(c7scc8c7C(=O)N(C7CCC(=O)NC7=O)C8=O)CC6)C5)CC4)ncc3Cl)ccc2n(C)c1=O` (stereo unspecified) [US20250333410, Compound 67] has an IC50 greater than 40 µM.
With `CC(=O)COc1cc2cc(Nc3nc(N4CC[C@@H](N5CCN(c6ccc(N[C@H]7CCC(=O)NC7=O)cc6F)CC5)C(F)(F)C4)ncc3Cl)ccc2n(C)c1=O` [US20250333410, Compound 75] the IC50 was greater than 40 µM.
Compound `CNC(=O)COc1cc2cc(Nc3nc(N4CCC(N5CCN(c6ccc(NC7CCC(=O)NC7=O)cc6F)CC5)C(F)(F)C4)ncc3Cl)ccc2n(C)c1=O` (stereo unspecified) [US20250333410, Compound 71] has an IC50 greater than 40 µM.
`CNC(=O)COc1cc2cc(Nc3nc(N4CCC(N5CCN(c6cccc7c6n(C)c(=O)n7C6CCC(=O)NC6=O)CC5)C(F)(F)C4)ncc3Cl)ccc2n(C)c1=O` (stereo unspecified) [US20250333410, Compound 77] showed an IC50 greater than 40 µM.
`CC(=O)COc1cc2cc(Nc3nc(N4CCC(N5CCN(c6c(F)cc(C7CCC(=O)NC7=O)cc6F)CC5)C(F)(F)C4)ncc3Cl)ccc2n(C)c1=O` (stereo unspecified) [US20250333410, Compound 76] gave an IC50 greater than 40 µM.
For `CCC(=O)COc1cc2cc(Nc3nc(N4CCC(N5CCN(c6cccc7c(C8CCC(=O)NC8=O)nn(C)c67)CC5)C(F)(F)C4)ncc3Cl)ccc2n(C)c1=O` (stereo unspecified) [US20250333410, Compound 78], the IC50 was greater than 40 µM.
`CNC(=O)COc1cc2cc(Nc3nc(N4CCC(CN5CCC(c6cccc7c6n(C)c(=O)n7C6CCC(=O)NC6=O)CC5)CC4)ncc3Cl)ccc2n(C)c1=O` (stereo unspecified) [US20250333410, Compound 35] showed an IC50 greater than 30 µM.
`CNC(=O)COc1cc2cc(Nc3nc(N4CCN(CC5CCN(c6ccc7c8c(oc7c6)C(=O)N(C6CCC(=O)NC6=O)C8)CC5)CC4)ncc3Cl)ccc2n(C)c1=O` (stereo unspecified) [US20250333410, Compound 46] showed an IC50 greater than 30 µM.
`CNC(=O)COc1cc2cc(Nc3nc(N4CC[C@@H](N5CCN(c6ccc(N[C@@H]7CCC(=O)NC7=O)cc6F)CC5)C(F)(F)C4)ncc3Cl)ccc2n(C)c1=O` [US20250333410, Compound 72] was tested, and the IC50 was greater than 40 µM.

Source: BindingDB's records for patent US20250333410 (Xizang Haisco Pharmaceutical, 2025)
